Laboratory results taken from patent US20050014754A1, “Fused pyrrole compounds” (priority 2003, published 2005).

Legend:
[1] = system: PDE4; assay: In-vitro assay measuring PDE4 inhibition (PDE4 from U937 human monocytic cells, [3H]-cAMP SPA); assay type: biochemical; details: 23 nM [3H]-cAMP, 37° C., 30 min
Protocol: PDE4 was prepared from U937 human monocytic cells according to the method of Tenor et al. (Clin Exp Allegy (1995) 25:625-633). Briefly, U937 cells were homogenized in a mixture of pH 7.4 containing 10 mM Hepes, 1 mM b-mercaptoethanol, 1 mM MgCl2, 1 mM EGTA, 137 mM NaCl, 2.7 mM KCl, 1.5 mM KH2PO4, 8.1 mM Na2HPO4, 5 μM pepstain A, 10 μM leupeptin, 50 μM PMSF, 10 μM soybean trypsin inhibitor, and 2 mM benzamindine. The homogenate was centrifuged at 200,000×g for 30 min. PDE4 activity in the supernatant was assayed in a 200 μl reaction containing 40 mM Tris-HCl, pH 7.5, 23 nM [^3H]-adenosine 3′,5′ cyclic monophosphate (cAMP), 8.3 mM MgCl2, 1.7 mM EGTA, 0.25% DMSO, and a testing compound. The assay mixture was incubated at 37° C. for 30 min and the reaction was terminated by the addition of 100 μl of yttrium silicate SPA beads (Amersham Pharmacia Biotech, Piscataway, N.J.) suspended in 18 mM ZnSO4. The assay mixture was rotated for 3 min to ensure the binding of [^3H]-5′adenosine monophosphate to the beads. Finally, the beads was spun down, washed twice with 6 mM ZnSO4, resuspended in 100 μl of 0.1 N NaOH, and then counted for radioactivity in a liquid scintillation counter.

[2] = system: MDA435 (human breast cancer); assay: In-vitro assay measuring anti-cancer activity (MTS assay); assay type: cell-based; details: MDA435 cells, 72 hours incubation, read-out: IC50, concentration required to inhibit 50% tumor cell growth
Protocol: In vitro anti-cancer activity was determined in human cancer cell line MDA435 (human breast cancer), obtained from ATCC (American Type of Culture Collection).
The cell line was maintained in RPMI1640(GIBCO) supplemented with 10% FCS, 100 units/ml penicillin, 100 ug/ml streptomycin, and 2 mM L-glutamine. The cells were split every third day and diluted to a concentration of 2×10^5 cells/ml one day before experiment. The experiment was performed on exponentially growing cell culture. Cell densities were 2.5×10^4 cells/ml in this experiment.
A stock solution of Compound (I-4) was prepared by dissolving the compound at a concentration of 1 mM in 100% DMSO. Final concentrations were obtained by diluting the stock solution directly into the tissue culture medium. Cells were incubated with varying concentrations of the compound for 72 hours and the IC50 was determined by MTS (i.e. 3-(4.5.-dimethylthiazol-2-yl)-2.5-diphenyl tetrazolium bromide) assay. In this experiment, IC50 stands for the concentration of compound required to inhibit 50% tumor cell growth. Compound (I-4) provided an IC50 value of about 1 μM.

[3] = system: TNFα; assay: In-vitro assay measuring TNFα inhibition (LPS-stimulated human PBMC, ELISA); assay type: cell-based; details: human PBMC stimulated with LPS 1 μg/mL, supernatant after 18 h, read-out: IC50, inhibition of TNFα production
Protocol: Reagents. Lipopolysaccharide (LPS, Serratia marscencens) was obtained from Sigma (St. Louis, Mo.). RPMI-1640 medium and fetal calf serum (FCS) were purchased from the ATCC (Manassas, Va.).
Assay. Human peripheral blood cells (PBMC) were isolated by centrifugation using Ficoll-Paque (Pharmacia Biotech, Uppsala, Sweden) and suspended in RPMI-1640 medium supplemented with 10% FCS, 100 U/mL penicillin, and 100 μg/mL streptomycin. The cells were then plated in the wells of a 96-well plate at a concentration of 5×10^5 cells/well, and stimulated by adding LPS (1 μg/mL). Each test compound was dissolved in DMSO and added to the wells. The final DMSO concentration was adjusted to 0.25% in all cultures, including the compound-free control, and the concentrations of each test compound ranged from 0 to 10 μM. Cell-free supernatants were taken 18 h later for measurement of cytokines. Cell viability was assessed using the bioreduction of MTS [3-(4,5-dimethylthiazol-2-yl)-5-(3-carboxymethoxyphenyl)-2-(4-sulophenyl)-2H-tetrazolium] after 18 h and 48 h. Cell survival was estimated by determining the ratio of the absorbance in each of the compound-treated cultures to that in the compound-free control.
The supernatant was assayed for the amount of TNFα by using an ELISA assay with anti-human TNFa antibodies (Cell Sciences, Norwood, Mass.). The assay was carried out following the manufacturer's instructions.

IC50 [1] [µM]	IC50 [2] [µM]	IC50 [3] [µM]	SMILES
~0.005	~1	~0.05	O=C(Nc1c(Cl)c[n+]([O-])cc1Cl)C(=O)c1cc(Cc2ccc(F)cc2)n2ncccc12 [Compound I-4, N-(3,5-Dichloro-1-oxy-pyridin-4-yl)-2-[7-(4-fluoro-benzyl)-pyrrolo[1,2-b]pyridazin-5-yl]-2-oxo-acetamide]
–	–	~1	Cc1cc(NC(=O)C(=O)c2cc(Cc3ccc(C#N)cc3)n3ccsc23)sn1 [Compound I-10, 2-[5-(4-Cyano-benzyl)-pyrrolo[2,1-b]thiazol-7-yl]-N-(3-methyl-isothiazol-5-yl)-2-oxo-acetamide]
